Data reported in US20190388421A1, “NOVEL COMPOUNDS AND PHARMACEUTICAL COMPOSITIONS THEREOF FOR THE TREATMENT OF FIBROSIS” (Galapagos NV, priority 2016, published 2019).

How the values were obtained:
[1] = molecular target: T1, human GPCR sphingosine 1-phosphate receptor 5 (S1PR5) (Homo sapiens, UniProt Q9H228); test: S1PR5 selectivity assay (Ca2+ flux, antagonist, S1PR5 specific agonist trigger); format: cell-based; conditions: S1P5 antagonist EC50, CHO cells overexpressing human S1PR5 and Gq protein
T1 construct: host or cells: CHO
T1 sequence (Q9H228 whole entry): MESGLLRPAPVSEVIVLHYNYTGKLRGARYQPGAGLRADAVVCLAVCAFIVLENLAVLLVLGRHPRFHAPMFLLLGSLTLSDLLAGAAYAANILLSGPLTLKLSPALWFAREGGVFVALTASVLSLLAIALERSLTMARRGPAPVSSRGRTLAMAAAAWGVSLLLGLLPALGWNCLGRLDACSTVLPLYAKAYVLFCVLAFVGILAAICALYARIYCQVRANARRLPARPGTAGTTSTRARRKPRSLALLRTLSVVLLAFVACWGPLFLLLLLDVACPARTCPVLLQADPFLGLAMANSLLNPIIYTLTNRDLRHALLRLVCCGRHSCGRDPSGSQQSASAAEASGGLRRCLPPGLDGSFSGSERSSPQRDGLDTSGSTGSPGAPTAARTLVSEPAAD
In short: (§1)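 CHO cells stably overexpressing human S1PR1 or S1PR5 with Gq were preincubated with compound 15 min at 37 °C, then stimulated with S1P at EC80 (S1PR1) or an S1PR5-specific agonist (S1PR5). Ca2+ fluorescence was read for 3 min; 10-point 1/3 dilutions from 20 μM final, normalized to vehicle and EC80 trigger, gave EC50.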

[2] = molecular target: T2, human GPCR sphingosine 1-phosphate receptor 1 (S1PR1) (Homo sapiens, UniProt P21453); test: S1PR1 selectivity assay (Ca2+ flux, antagonist); format: cell-based; conditions: S1P1 antagonist EC50, CHO cells overexpressing human S1PR1 and Gq protein
T2 construct: host or cells: CHO
T2 sequence (P21453 whole entry): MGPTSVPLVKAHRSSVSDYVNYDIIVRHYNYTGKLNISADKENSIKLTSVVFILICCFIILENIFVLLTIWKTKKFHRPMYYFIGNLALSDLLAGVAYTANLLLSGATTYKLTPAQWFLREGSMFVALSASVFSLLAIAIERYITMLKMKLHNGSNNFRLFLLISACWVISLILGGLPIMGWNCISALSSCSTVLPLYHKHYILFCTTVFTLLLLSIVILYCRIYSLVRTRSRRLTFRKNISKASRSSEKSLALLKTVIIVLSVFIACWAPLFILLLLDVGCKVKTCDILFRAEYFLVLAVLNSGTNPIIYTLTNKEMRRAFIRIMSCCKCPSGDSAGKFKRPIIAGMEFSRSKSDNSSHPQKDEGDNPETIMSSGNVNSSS
In short: as §1

HFL-1 cells [3] = test: IL8 assay (S1P induced IL-8 production); format: cell-based; conditions: Homo sapiens, HFL1; S1P (1 μM) induced IL-8, HFL-1 cells, without HSA
Experimental: (§2) S1P is able to induce cytokines such as IL-8 in a process that is S1PR2 dependent (O'Sullivan et al, 2014; Bruennert et al, 2015). This assay is designed to test inhibitory activity of compounds on S1P induced IL-8 on HFL-1 cells, a human fetal lung fibroblast cell line.
Human Fetal Lung cells (HFL-1) are seeded in 96 well plates in growth medium (F12K+10% heat inactivated FBS+1% Pen/strep). After overnight incubation at 37° C., 5% CO2 cells are refreshed with starvation medium without HSA (F12K+1% FBS+1% Pen/strep). On day three, compounds are added (10 point serial dilution, 30 μM highest concentration, ⅓ dilution, 0.3% DMSO final) and plates are incubated for one hour at 37° C., 5% CO2. Subsequently S1P at 1 μM final concentration is added and plates are incubated for 16 to 24 hours at 37° C., 5% CO2 after which the supernatant was collected. IL-8 levels in the supernatant are determined with the IL-8 ELISA of R&D systems.

S1PR2 = molecular target: T3, S1PR2 (Homo sapiens, UniProt O95136); test: GTP-γS binding assay ([35S]GTPγS, S1P at EC80, S1PR2 membranes); format: biochemical; conditions: membranes from stable cell line over expressing S1PR2, read-out: S1PR2 EC
T3 construct: expressed in transfected cells
T3 sequence (O95136 whole entry): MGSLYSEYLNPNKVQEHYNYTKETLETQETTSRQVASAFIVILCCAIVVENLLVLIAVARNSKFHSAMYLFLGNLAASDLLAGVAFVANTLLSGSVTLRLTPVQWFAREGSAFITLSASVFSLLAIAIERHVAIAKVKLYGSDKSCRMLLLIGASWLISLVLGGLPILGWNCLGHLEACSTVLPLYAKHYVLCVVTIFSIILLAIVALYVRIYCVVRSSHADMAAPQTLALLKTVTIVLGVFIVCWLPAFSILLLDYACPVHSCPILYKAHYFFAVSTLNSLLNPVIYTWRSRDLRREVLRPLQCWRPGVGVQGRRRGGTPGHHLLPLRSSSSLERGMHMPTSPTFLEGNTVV
In short: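 Compounds tested against S1P at its EC80 on membranes (2.5 μg/well) from a stable S1PR2-overexpressing line, pre-incubated with 1 μM GDP 15 min at 4 °C. Buffer: 20 mM Tris pH 7.5, 10 mM MgCl2, 100 mM NaCl, 0.1% fatty-acid-free BSA, 50 ug/ml saponin. Incubated 4 h at room temperature; [35S]GTPγS binding read by WGA SPA beads.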

[4] = molecular target: T4, human GPCR sphingosine 1-phosphate receptor 2 (S1PR2) (Homo sapiens, UniProt O95136); test: S1P2 antagonist assay (Ca2+ flux, S1P at EC80); format: cell-based; conditions: CHO-S1PR2 cells, highest concentration 20 μM
T4 construct: host or cells: CHO
T4 sequence (O95136 whole entry): as above
In short: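 CHO cells stably overexpressing human S1PR2, serum-starved 1 h and loaded with Fluo8 dye, were read for 3 min after compound addition, then stimulated with S1P at EC80 after 15 min at 37 °C. Top concentration 20 μM in a 10-point 1/3 series; Ca2+ fluorescence ratio normalized to vehicle and S1P EC80, giving EC50.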

HFL-1 cells [5] = test: IL8 assay in the presence of Human Serum Albumin; format: cell-based; conditions: HFL1, S1P (5 μM) induced IL-8, HFL-1 cells, with 2% HSA, read-out: HSA IL8 EC50
Experimental: as §2
To evaluate the influence of plasma protein binding of Sip as well as compound, the S1P induced IL-8 levels were evaluated in presence of 2% Human Serum Albumin (HSA, equivalent to 40% human serum). By adding 2% HSA, which affects both the activity of the compounds as well as the S1P potency, the physiological condition are reproduced and the shift in potency expected under in vivo serum conditions can be measured.
Human Fetal Lung cells (HFL-1) are seeded in 96 well plates in growth medium (F12K+10% heat inactivated FBS+1% Pen/strep). After overnight incubation at 37° C., 5% CO2 cells are refreshed with starvation medium with HSA (F12K+1% FBS+1% Pen/strep+1.95% HSA). On day three, compounds are added (10 point serial dilution, 30 μM highest concentration, 1/3 dilution, 0.3% DMSO final) and plates are incubated for 1 h at 37° C., 5% CO2. Subsequently S1P at 5 μM final concentration is added and plates are incubated for 16 to 24 h at 37° C., 5% CO2 after which the supernatant was collected. IL-8 levels in the supernatant are determined with the IL-8 ELISA of R&D systems.

Row | SMILES | EC50 [1] [nM] | EC50 [2] [nM] | EC50 (HFL-1 cells [3]) [nM] | EC50 (S1PR2) [nM] | EC50 [4] [nM] | IC50 (HFL-1 cells [5]) [nM]
1 | CCOc1cc(NC(=O)NCc2cc(C)c(-c3cn(C)nc3C(F)(F)F)nn2)cc(C#N)n1 [Compound 18, 1-(2-cyano-6-ethoxy-4-pyridyl)-3-[[5-methyl-6-[1-methyl-3-(trifluoromethyl)pyrazol-4-yl]pyridazin-3-yl]methyl]urea] | ≥ 19800 | 6610 | 4.6 | 35.8 | 10.9 | 29
2 | CCOc1nc(C(F)(F)F)cc(NC(=O)NCc2cc(C)c(-c3cn(C)nc3C(F)(F)F)nn2)c1C [Compound 30, 1-[2-ethoxy-3-methyl-6-(trifluoromethyl)-4-pyridyl]-3-[[5-methyl-6-[1-methyl-3-(trifluoromethyl)pyrazol-4-yl]pyridazin-3-yl]methyl]urea] | 3280 | 4480 | 1.5 | 26.2 | 6.1 | 37.9
3 | CCOc1cc(NC(=O)NCc2cc(C)c(-c3cn(C)nc3C(F)(F)F)nn2)cc(C)n1 [Compound 35, 1-(2-ethoxy-6-methyl-4-pyridyl)-3-[[5-methyl-6-[1-methyl-3-(trifluoromethyl)pyrazol-4-yl]pyridazin-3-yl]methyl]urea] | ≥ 19800 | ≥ 19800 | 61.9 | 242 | 74.5 | 185
4 | CCOc1nc(Cl)cc(NC(=O)NCc2cc(C)c(-c3cn(C)nc3C(F)(F)F)nn2)n1 [Compound 38, 1-(6-chloro-2-ethoxy-pyrimidin-4-yl)-3-[[5-methyl-6-[1-methyl-3-(trifluoromethyl)pyrazol-4-yl]pyridazin-3-yl]methyl]urea] | ≥ 19800 | ≥ 19800 | 31.8 | 109 | 40.2 | 198
5 | Cc1cc(CNC(=O)Nc2cc(OCC3(C(F)(F)F)CC3)nc(C(F)(F)F)c2)nnc1-c1cn(C)nc1C(F)(F)F [Compound 39, 1-[[5-methyl-6-[1-methyl-3-(trifluoromethyl)pyrazol-4-yl]pyridazin-3-yl]methyl]-3-[2-(trifluoromethyl)-6-[[1-(trifluoromethyl)cyclopropyl]methoxy]-4-pyridyl]urea] | 6610 | 6610 | 122 | 1040 | 219 | 9950
6 | Cc1cc(CNC(=O)Nc2cc(OC3CCOCC3)nc(C(F)(F)F)c2)nnc1-c1cn(C)nc1C(F)(F)F [Compound 40, 1-[[5-methyl-6-[1-methyl-3-(trifluoromethyl)pyrazol-4-yl]pyridazin-3-yl]methyl]-3-[2-tetrahydropyran-4-yloxy-6-(trifluoromethyl)-4-pyridyl]urea] | 6610 | 5150 | 142 | 1080 | 291 | 3860
7 | COCC(C)Oc1cc(NC(=O)NCc2cc(C)c(-c3cn(C)nc3C(F)(F)F)nn2)cc(C(F)(F)F)n1 (stereo not drawn) [Compound 41, 1-[2-(2-methoxy-1-methyl-ethoxy)-6-(trifluoromethyl)-4-pyridyl]-3-[[5-methyl-6-[1-methyl-3-(trifluoromethyl)pyrazol-4-yl]pyridazin-3-yl]methyl]urea] | ≥ 19800 | ≥ 19800 | 48.9 | 542 | 101 | 597
8 | CCOc1nc(C(F)(F)F)cc(NC(=O)NC(C)c2cc(C)c(-c3cn(C)nc3C(F)(F)F)nn2)c1C (stereo not drawn) [Compound 45, 1-[2-ethoxy-3-methyl-6-(trifluoromethyl)-4-pyridyl]-3-[1-[5-methyl-6-[1-methyl-3-(trifluoromethyl)pyrazol-4-yl]pyridazin-3-yl]ethyl]urea] | 6610 | ≥ 19800 | 41.1 | 211 | 19.7 | 84.2
9 | CCOc1nc(C(F)(F)F)cc(NC(=O)NCc2cc(C)c(-c3cn(C)nc3C(F)(F)F)nn2)c1CC [Compound 46, 1-[2-ethoxy-3-ethyl-6-(trifluoromethyl)-4-pyridyl]-3-[[5-methyl-6-[1-methyl-3-(trifluoromethyl)pyrazol-4-yl]pyridazin-3-yl]methyl]urea] | 6610 | 6610 | 25.6 | 97 | 17.2 | 9950
10 | Cc1cc(CNC(=O)Nc2cc(N3CC(F)(F)C3)nc(C(F)(F)F)c2)nnc1-c1cn(C)nc1C(F)(F)F [Compound 47] | ≥ 19800 | 6610 | 4.6 | 34.5 | 9.3 | 42.4
11 | Cc1cc(CNC(=O)Nc2cc(OCC(F)F)nc(N3CC(F)(F)C3)c2)nnc1-c1cn(C)nc1C(F)(F)F [Compound 48, 1-[2-(3,3-difluoroazetidin-1-yl)-6-(2,2-difluoroethoxy)-4-pyridyl]-3-[[5-methyl-6-[1-methyl-3-(trifluoromethyl)pyrazol-4-yl]pyridazin-3-yl]methyl]urea] | ≥ 19800 | 5100 | 23.9 | 154 | 27.1 | 104
12 | Cc1cc(CNC(=O)Nc2cc(Cl)nc(OCC(F)F)c2C)nnc1-c1cn(C)nc1C(F)(F)F [Compound 50, 1-[6-chloro-2-(2,2-difluoroethoxy)-3-methyl-4-pyridyl]-3-[[5-methyl-6-[1-methyl-3-(trifluoromethyl)pyrazol-4-yl]pyridazin-3-yl]methyl]urea] | 3650 | 5920 | 1.5 | 24.1 | 8 | 74
13 | CCOc1cc(NC(=O)NCc2cc(C)c(-c3cn(C4CCOC4)nc3C(F)(F)F)nn2)cc(C(F)(F)F)n1 (stereo not drawn) [Compound 52, 1-[2-ethoxy-6-(trifluoromethyl)-4-pyridyl)-3-[[5-methyl-6-[1-tetrahydrofuran-3-yl-3-(trifluoromethyl)pyrazol-4-yl]pyridazin-3-yl]methyl]urea] | 6620 | 5890 | 7.8 | 70.2 | 11.4 | 79.3
14 | CCOc1cc(NC(=O)NCc2cc(C)c(-c3cn(CCOC)nc3C(F)(F)F)nn2)cc(C(F)(F)F)n1 [Compound 53, 1-[2-ethoxy-6-(trifluoromethyl)-4-pyridyl]-3-[[6-[1-(2-methoxyethyl)-3-(trifluoromethyl)pyrazol-4-yl]-5-methyl-pyridazin-3-yl]methyl]urea] | 6610 | 4020 | 6.6 | 52.4 | 10 | 51.2
15 | CCOc1cc(NC(=O)NCc2cc(C)c(-c3cn(C)nc3C3CC3)nn2)cc(C(F)(F)F)n1 [Compound 54, 1-[[6-(3-cyclopropyl-1-methyl-pyrazol-4-yl)-5-methyl-pyridazin-3-yl]methyl]-3-[2-ethoxy-6-(trifluoromethyl)-4-pyridyl]urea] | 4580 | 2480 | 11.6 | 151 | 15.3 | 278
